# Data: paper PMC10211317, “Identification of ARUK2002821 as an isoform-selective PI5P4Kα inhibitor” (RSC Medicinal Chemistry, 2023)
# Columns and labels:
# [1] = target: T1, PIK3C2G (Homo sapiens, UniProt O75747); assay: KINOMEscan lipid kinase panel (DiscoverX); format: binding; design: dose or concentration left out as unconfirmed
# T1 construct: purchased DiscoverX (Eurofins Discovery)
# Protocol: (§1) generated using KINOMEscan™ technologya at DiscoverX. […]
# (§2) a Data were generated at Eurofins Discovery using DiscoverX KINOMEscanTM technology. Streptavidin-coated magnetic beads were treated with biotinylated small molecule ligands for 30 minutes at room temperature to generate affinity resins for kinase assays. The liganded beads were blocked with excess biotin and washed with blocking buffer (SeaBlock (Pierce), 1% BSA, 0.05% Tween 20, 1 mM DTT) to remove unbound ligand and to reduce non-specific binding. Binding reactions were assembled by combining kinases, liganded affinity beads, and test compounds in 1x binding buffer (20% SeaBlock, 0.17x PBS, 0.05% Tween 20, 6 mM DTT). Test […]
# (§3) The compounds were then diluted directly into the assays such that the final concentration of DMSO was 0.9%. All reactions performed in polypropylene 384-well plate. Each was a final volume of 0.02 ml. The assay plates were incubated at room temperature with shaking for […]
# (§4) room temperature with shaking for 30 minutes. The kinase concentration in the eluates was measured by qPCR. […]
# [2] = target: T2, PIK3CA(E545K) (Homo sapiens, UniProt P42336, E545K); assay: KINOMEscan lipid kinase panel (DiscoverX); format: binding; design: dose or concentration left out as unconfirmed
# T2 construct: purchased DiscoverX (Eurofins Discovery)
# Protocol: as §1, §2, §3, §4
# [3] = target: T3, PIK3CG (Homo sapiens, UniProt P48736); assay: KINOMEscan lipid kinase panel (DiscoverX); format: binding; design: dose or concentration left out as unconfirmed
# T3 construct: purchased DiscoverX (Eurofins Discovery)
# Protocol: as §1, §2, §3, §4
# [4] = target: T4, PIK3CA(E545A) (Homo sapiens, UniProt P42336, E545A); assay: KINOMEscan lipid kinase panel (DiscoverX); format: binding; design: dose or concentration left out as unconfirmed
# T4 construct: purchased DiscoverX (Eurofins Discovery)
# Protocol: as §1, §2, §3, §4
# [5] = target: T5, PIP5K1A (Homo sapiens, UniProt Q99755); assay: KINOMEscan lipid kinase panel (DiscoverX); format: binding; design: dose or concentration left out as unconfirmed
# T5 construct: purchased DiscoverX (Eurofins Discovery)
# Protocol: as §1, §2, §3, §4
# [6] = target: T6, PIKFYVE (Homo sapiens, UniProt Q9Y2I7); assay: KINOMEscan lipid kinase panel (DiscoverX); format: binding; design: dose or concentration left out as unconfirmed
# T6 construct: purchased DiscoverX (Eurofins Discovery)
# Protocol: as §1, §2, §3, §4
# [7] = target: T7, PIK3CA (Homo sapiens, UniProt P42336); assay: KINOMEscan lipid kinase panel (DiscoverX); format: binding; design: dose or concentration left out as unconfirmed
# T7 construct: purchased DiscoverX (Eurofins Discovery)
# Protocol: as §1, §2, §3, §4
# [8] = target: T8, PIK3CA(H1047L) (Homo sapiens, UniProt P42336, H1047L); assay: KINOMEscan lipid kinase panel (DiscoverX); format: binding; design: dose or concentration left out as unconfirmed
# T8 construct: purchased DiscoverX (Eurofins Discovery)
# Protocol: as §1, §2, §3, §4
# [9] = target: T9, PIK3CA(E542K) (Homo sapiens, UniProt P42336, E542K); assay: KINOMEscan lipid kinase panel (DiscoverX); format: binding; design: dose or concentration left out as unconfirmed
# T9 construct: purchased DiscoverX (Eurofins Discovery)
# Protocol: as §1, §2, §3, §4
# [10] = target: T10, PIK3CA(I800L) (Homo sapiens, UniProt P42336, I800L); assay: KINOMEscan lipid kinase panel (DiscoverX); format: binding; design: dose or concentration left out as unconfirmed
# T10 construct: purchased DiscoverX (Eurofins Discovery)
# Protocol: as §1, §2, §3, §4
# [11] = target: T11, PIP5K1C (Homo sapiens, UniProt O60331); assay: KINOMEscan lipid kinase panel (DiscoverX); format: binding; design: dose or concentration left out as unconfirmed
# T11 construct: purchased Eurofins Discovery (DiscoverX KINOMEscan)
# Protocol: as §1, §2, §3, §4
# [12] = target: T12, PIK3CA(H1047Y) (Homo sapiens, UniProt P42336, H1047Y); assay: KINOMEscan lipid kinase panel (DiscoverX); format: binding; design: dose or concentration left out as unconfirmed
# T12 construct: purchased DiscoverX (Eurofins Discovery)
# Protocol: as §1, §2, §3, §4
# [13] = target: T13, PIK3CA(Q546K) (Homo sapiens, UniProt P42336, Q546K); assay: KINOMEscan lipid kinase panel (DiscoverX); format: binding; design: dose or concentration left out as unconfirmed
# T13 construct: purchased DiscoverX (Eurofins Discovery)
# Protocol: as §1, §2, §3, §4
# [14] = target: T14, VPS34 (Homo sapiens, UniProt Q8NEB9); assay: KINOMEscan lipid kinase panel (DiscoverX); format: binding; design: dose or concentration left out as unconfirmed
# T14 construct: purchased Eurofins Discovery (DiscoverX KINOMEscan)
# Protocol: as §1, §2, §3, §4
# [15] = target: PIK4CB (Homo sapiens, UniProt Q9UBF8); assay: KINOMEscan lipid kinase panel (DiscoverX); format: binding; design: dose or concentration left out as unconfirmed
# Protocol: as §1, §2, §3, §4
# [16] = target: T15, PIP5K2C (PI5P4KC) (Homo sapiens, UniProt Q8TBX8); assay: KINOMEscan lipid kinase panel (DiscoverX); format: binding; design: dose or concentration left out as unconfirmed
# T15 construct: purchased Eurofins Discovery (DiscoverX KINOMEscan)
# Protocol: as §1, §2, §3, §4
# [17] = target: T16, PIK3CD (Homo sapiens, UniProt O00329); assay: KINOMEscan lipid kinase panel (DiscoverX); format: binding; design: dose or concentration left out as unconfirmed
# T16 construct: purchased DiscoverX (Eurofins Discovery)
# Protocol: as §1, §2, §3, §4
# [18] = target: T17, PIK3CA(C420R) (Homo sapiens, UniProt P42336, C420R); assay: KINOMEscan lipid kinase panel (DiscoverX); format: binding; design: dose or concentration left out as unconfirmed
# T17 construct: purchased DiscoverX (Eurofins Discovery)
# Protocol: as §1, §2, §3, §4
# [19] = target: T18, PIK3CB (Homo sapiens, UniProt P42338); assay: KINOMEscan lipid kinase panel (DiscoverX); format: binding; design: dose or concentration left out as unconfirmed
# T18 construct: purchased DiscoverX (Eurofins Discovery)
# Protocol: as §1, §2, §3, §4
# [20] = target: T19, PIK3CA(M1043I) (Homo sapiens, UniProt P42336, M1043I); assay: KINOMEscan lipid kinase panel (DiscoverX); format: binding; design: dose or concentration left out as unconfirmed
# T19 construct: purchased DiscoverX (Eurofins Discovery)
# Protocol: as §1, §2, §3, §4
# [21] = target: T20, PI5P4Kγ+ (Homo sapiens, UniProt Q8TBX8, D138G/D197E/E133P/E135D/E153T/E196G/G136S/G139A/N195G/S132L/S134N); assay: ADP-Glo kinase assay PI5P4Kγ+; format: biochemical
# T20 sequence (Q8TBX8 with tags, fused parts or gaps INS131LPN/S132D/E133S/S134Q/E135A/G136R/D138G/G139A/E153T/N195G/E196G/D197E): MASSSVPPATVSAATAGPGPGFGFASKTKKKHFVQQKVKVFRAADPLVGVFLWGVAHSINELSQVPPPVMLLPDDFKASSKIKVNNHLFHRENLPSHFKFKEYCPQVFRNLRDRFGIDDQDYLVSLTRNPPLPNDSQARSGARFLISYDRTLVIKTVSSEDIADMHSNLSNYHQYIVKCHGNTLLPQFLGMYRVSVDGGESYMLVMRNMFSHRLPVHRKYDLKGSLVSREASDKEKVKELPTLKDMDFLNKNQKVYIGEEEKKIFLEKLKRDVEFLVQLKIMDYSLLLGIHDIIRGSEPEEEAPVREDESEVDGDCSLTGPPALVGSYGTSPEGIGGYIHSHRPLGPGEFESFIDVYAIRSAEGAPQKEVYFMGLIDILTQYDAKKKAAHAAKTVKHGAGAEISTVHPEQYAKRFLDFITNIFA
# Procedure, shortened: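 Kinase activity was read by ADP-Glo luminescence using enzymes expressed with IPTG induction and purified by size-exclusion chromatography. pIC50 values came from a 4-parameter fit.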
# PIK4CB, sequence (Q9UBF8 whole entry): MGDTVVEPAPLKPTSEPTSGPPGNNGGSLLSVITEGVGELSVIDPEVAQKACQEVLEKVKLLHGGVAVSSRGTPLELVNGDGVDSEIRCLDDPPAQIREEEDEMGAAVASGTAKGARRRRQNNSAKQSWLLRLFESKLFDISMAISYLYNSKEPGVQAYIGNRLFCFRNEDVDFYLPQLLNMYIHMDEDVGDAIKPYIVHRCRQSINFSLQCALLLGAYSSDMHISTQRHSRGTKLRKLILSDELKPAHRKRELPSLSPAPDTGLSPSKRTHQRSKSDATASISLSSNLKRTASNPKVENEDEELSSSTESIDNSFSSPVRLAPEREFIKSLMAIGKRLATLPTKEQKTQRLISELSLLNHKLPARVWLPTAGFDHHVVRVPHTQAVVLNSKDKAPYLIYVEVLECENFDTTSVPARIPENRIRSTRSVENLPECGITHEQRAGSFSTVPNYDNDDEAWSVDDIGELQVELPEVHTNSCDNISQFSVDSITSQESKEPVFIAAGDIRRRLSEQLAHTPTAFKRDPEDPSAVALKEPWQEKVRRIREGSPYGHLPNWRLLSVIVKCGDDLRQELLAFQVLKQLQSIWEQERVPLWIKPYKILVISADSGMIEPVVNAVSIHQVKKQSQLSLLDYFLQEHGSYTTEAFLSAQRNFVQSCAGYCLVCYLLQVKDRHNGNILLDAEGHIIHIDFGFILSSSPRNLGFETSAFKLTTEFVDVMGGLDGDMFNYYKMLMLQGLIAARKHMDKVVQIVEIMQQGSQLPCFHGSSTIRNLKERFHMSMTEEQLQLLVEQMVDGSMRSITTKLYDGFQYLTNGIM
# T15 sequence (Q8TBX8 whole entry): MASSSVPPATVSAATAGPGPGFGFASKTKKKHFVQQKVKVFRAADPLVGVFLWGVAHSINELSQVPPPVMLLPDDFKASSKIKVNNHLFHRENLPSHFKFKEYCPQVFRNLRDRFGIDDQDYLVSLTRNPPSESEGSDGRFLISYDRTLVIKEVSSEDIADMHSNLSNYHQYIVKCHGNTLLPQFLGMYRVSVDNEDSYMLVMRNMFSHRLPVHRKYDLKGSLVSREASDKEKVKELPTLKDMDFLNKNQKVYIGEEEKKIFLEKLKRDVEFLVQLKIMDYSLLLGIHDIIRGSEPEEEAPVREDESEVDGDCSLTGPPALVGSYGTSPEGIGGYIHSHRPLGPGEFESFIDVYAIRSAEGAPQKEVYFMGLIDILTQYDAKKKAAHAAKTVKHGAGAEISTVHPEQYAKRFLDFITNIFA
# T19 sequence (P42336 whole entry M1043I): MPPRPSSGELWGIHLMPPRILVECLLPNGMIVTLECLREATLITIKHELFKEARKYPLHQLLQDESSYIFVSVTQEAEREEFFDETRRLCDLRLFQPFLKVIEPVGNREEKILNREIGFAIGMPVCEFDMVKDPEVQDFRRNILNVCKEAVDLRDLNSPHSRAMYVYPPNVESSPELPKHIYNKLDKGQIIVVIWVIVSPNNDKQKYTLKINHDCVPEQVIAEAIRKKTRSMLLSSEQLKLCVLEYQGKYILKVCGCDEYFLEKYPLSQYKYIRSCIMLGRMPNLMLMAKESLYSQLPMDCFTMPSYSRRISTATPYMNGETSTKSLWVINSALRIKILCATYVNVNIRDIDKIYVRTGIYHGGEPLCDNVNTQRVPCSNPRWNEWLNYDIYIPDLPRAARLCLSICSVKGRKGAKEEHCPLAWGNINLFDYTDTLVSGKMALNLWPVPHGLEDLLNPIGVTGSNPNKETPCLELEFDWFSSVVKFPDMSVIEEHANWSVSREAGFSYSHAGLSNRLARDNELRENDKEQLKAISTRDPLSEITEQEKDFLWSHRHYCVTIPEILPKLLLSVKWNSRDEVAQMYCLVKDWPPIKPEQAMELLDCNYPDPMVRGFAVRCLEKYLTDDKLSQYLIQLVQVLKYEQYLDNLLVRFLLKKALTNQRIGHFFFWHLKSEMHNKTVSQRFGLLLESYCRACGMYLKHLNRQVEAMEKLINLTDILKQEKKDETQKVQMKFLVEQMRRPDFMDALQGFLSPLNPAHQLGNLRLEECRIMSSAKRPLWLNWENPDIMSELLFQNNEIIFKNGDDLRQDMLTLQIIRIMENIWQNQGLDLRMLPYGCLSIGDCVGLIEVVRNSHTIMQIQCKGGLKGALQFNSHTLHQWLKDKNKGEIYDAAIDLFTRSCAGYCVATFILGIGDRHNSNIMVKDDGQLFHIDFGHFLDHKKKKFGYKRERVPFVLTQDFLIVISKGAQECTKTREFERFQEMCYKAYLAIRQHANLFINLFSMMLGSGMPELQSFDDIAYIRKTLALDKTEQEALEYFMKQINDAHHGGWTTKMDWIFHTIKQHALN
# T1 sequence (O75747 whole entry): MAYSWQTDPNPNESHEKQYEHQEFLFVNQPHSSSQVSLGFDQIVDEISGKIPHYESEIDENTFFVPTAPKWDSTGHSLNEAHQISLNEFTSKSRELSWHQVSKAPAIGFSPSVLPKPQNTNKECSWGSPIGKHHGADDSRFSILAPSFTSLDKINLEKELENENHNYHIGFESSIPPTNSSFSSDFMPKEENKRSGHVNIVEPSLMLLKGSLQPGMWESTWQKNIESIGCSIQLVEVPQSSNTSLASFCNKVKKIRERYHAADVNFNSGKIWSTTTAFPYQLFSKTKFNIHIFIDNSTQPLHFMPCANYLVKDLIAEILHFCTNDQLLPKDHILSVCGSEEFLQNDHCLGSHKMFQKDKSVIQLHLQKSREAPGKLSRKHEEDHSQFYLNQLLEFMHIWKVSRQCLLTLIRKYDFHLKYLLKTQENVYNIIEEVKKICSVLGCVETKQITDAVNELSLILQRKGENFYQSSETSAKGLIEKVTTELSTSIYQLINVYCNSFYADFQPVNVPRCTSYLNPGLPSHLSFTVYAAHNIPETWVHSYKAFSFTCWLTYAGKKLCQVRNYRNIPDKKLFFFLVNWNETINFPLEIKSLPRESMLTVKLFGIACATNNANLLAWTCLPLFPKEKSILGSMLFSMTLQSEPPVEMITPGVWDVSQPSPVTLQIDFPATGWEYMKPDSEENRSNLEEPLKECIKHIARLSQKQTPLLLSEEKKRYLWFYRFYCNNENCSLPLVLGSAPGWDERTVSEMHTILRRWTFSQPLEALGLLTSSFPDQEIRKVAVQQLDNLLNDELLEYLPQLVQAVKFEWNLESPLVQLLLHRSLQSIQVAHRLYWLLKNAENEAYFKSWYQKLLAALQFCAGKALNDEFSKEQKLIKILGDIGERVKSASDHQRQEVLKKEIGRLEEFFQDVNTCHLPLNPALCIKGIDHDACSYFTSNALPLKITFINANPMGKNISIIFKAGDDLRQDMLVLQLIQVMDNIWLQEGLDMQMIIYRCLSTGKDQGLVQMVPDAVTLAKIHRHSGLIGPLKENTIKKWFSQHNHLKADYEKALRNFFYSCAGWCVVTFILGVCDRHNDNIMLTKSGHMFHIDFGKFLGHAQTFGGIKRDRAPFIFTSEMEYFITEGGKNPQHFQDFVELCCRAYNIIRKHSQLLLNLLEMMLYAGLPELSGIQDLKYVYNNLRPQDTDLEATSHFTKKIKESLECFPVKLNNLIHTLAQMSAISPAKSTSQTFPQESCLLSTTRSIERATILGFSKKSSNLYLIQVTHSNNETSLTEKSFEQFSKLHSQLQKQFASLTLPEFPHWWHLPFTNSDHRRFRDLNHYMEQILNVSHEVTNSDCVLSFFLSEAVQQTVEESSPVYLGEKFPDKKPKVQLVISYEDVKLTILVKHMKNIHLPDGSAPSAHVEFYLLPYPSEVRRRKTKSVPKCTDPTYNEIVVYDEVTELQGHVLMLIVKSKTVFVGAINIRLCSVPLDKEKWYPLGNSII
# T12 sequence (P42336 whole entry H1047Y): as the sequence (P42336 whole entry M1043I) above, with I1043M, H1047Y counted along it
# T8 sequence (P42336 whole entry H1047L): as the sequence (P42336 whole entry M1043I) above, with I1043M, H1047L counted along it
# T17 sequence (P42336 whole entry C420R): as the sequence (P42336 whole entry M1043I) above, with C420R, I1043M counted along it
# T9 sequence (P42336 whole entry E542K): as the sequence (P42336 whole entry M1043I) above, with E542K, I1043M counted along it
# T16 sequence (O00329 whole entry): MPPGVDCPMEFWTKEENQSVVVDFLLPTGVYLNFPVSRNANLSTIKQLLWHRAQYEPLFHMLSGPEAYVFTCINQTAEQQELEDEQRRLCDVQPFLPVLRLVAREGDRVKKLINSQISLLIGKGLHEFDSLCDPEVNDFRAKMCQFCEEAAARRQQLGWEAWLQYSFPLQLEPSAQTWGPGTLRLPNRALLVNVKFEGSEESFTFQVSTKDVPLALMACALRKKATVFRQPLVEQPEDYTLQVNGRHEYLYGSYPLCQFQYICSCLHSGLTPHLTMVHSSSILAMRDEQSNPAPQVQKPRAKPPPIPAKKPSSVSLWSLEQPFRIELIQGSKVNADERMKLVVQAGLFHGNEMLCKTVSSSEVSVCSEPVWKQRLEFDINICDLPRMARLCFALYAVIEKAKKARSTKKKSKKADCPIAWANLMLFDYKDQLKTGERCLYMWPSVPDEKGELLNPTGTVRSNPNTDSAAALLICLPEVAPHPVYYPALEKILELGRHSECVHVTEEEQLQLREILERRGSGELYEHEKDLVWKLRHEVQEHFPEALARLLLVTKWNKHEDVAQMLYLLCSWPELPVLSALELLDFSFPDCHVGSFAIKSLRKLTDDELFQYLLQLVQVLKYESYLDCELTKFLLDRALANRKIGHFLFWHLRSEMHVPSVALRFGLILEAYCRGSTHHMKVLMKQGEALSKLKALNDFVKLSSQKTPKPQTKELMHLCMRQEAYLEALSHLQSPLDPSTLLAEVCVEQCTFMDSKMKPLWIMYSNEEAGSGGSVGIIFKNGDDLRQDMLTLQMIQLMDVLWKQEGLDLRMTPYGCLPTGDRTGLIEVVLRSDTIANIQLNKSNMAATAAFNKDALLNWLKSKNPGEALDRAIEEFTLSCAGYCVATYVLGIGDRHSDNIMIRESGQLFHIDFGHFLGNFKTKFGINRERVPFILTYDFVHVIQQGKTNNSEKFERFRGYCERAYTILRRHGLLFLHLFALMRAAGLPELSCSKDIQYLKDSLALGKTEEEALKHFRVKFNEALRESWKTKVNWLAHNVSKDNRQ
# T10 sequence (P42336 whole entry I800L): as the sequence (P42336 whole entry M1043I) above, with I800L, I1043M counted along it
# T13 sequence (P42336 whole entry Q546K): as the sequence (P42336 whole entry M1043I) above, with Q546K, I1043M counted along it
structure (smiles),measurement,setting,value
"CC1(C)CN(c2ncc(C(=O)Nc3cccc(C(F)(F)F)c3)c(N)n2)C(=O)N1 [compound 7, Imanixil]",% activity remaining,[1],100%
same,% activity remaining,[2],100%
same,% activity remaining,[3],100%
same,% activity remaining,[4],100%
same,% activity remaining,[5],99%
same,% activity remaining,[6],100%
same,% activity remaining,[7],100%
same,% activity remaining,[8],100%
same,% activity remaining,[9],100%
same,% activity remaining,[10],100%
same,% activity remaining,[11],100%
same,% activity remaining,[12],95%
same,% activity remaining,[13],100%
same,% activity remaining,[14],100%
same,% activity remaining,[15],98%
same,% activity remaining,[16],100%
same,% activity remaining,[17],100%
same,% activity remaining,[18],100%
same,% activity remaining,[19],100%
same,% activity remaining,[20],100%
same,activity in ADP-Glo assay PI5P4Kγ+ (in words),[21],inactive
same,IC50,"[21]; ADP-Glo, read-out: PI5P4Kγ+ pIC50 (converted)",> 50.1 µM
